Experimental data taken from ChEMBL document CHEMBL5233247, “Recent advances in DNA gyrase-targeted antimicrobial agents” (Eur J Med Chem, 2020).
Values after ≈ are worked out from the molar mass of the structure shown. Values joined by “and” are separate entries in the source; they are usually repeats but may differ in a detail not shown here. Identical values can stand only once.

What was measured:
[1] = test system: Salmonella typhimurium; test: Antibacterial activity against Salmonella typhimurium; format: functional, Salmonella enterica subsp. enterica serovar Typhimurium; conditions: Salmonella enterica
[2] = test system: Bacillus subtilis; test: Antibacterial activity against Bacillus subtilis; format: functional
[3] = test system: Micrococcus luteus; test: Antibacterial activity against Micrococcus luteus; format: functional
[4] = test system: Escherichia coli; test: Antibacterial activity against Escherichia coli; format: functional
[5] = test system: Micrococcus luteus; test: Antimicrobial activity against Micrococcus luteus ATCC 9341 incubated for by the twofold serial agar dilution technique; format: functional
[6] = test system: Staphylococcus aureus; test: Antimicrobial activity against Staphylococcus aureus ATCC 25923 incubated for by the twofold serial agar dilution technique; format: functional
[7] = test system: Staphylococcus epidermidis; test: Antimicrobial activity against Staphylococcus epidermidis ATCC 12228 incubated for by the twofold serial agar dilution technique; format: functional
[8] = test system: Staphylococcus aureus; test: Antimicrobial activity against Staphylococcus aureus ATCC 29213 incubated for by the twofold serial agar dilution technique; format: functional
[9] = test system: Bacillus subtilis; test: Antimicrobial activity against Bacillus subtilis ATCC 6633 incubated for by the twofold serial agar dilution technique; format: functional
[10] = test system: Bacillus cereus; test: Antimicrobial activity against Bacillus cereus ATCC 11778 incubated for by the twofold serial agar dilution technique; format: functional
[11] = test system: Staphylococcus aureus; test: Antimicrobial activity against Staphylococcus aureus ATCC 6538 incubated for by the twofold serial agar dilution technique; format: functional
[12] = test system: Staphylococcus aureus; test: Antimicrobial activity against Staphylococcus aureus ATCC 4163 incubated for by the twofold serial agar dilution technique; format: functional
[13] = test system: Micrococcus luteus; test: Antimicrobial activity against Micrococcus luteus ATCC 10240 incubated for by the twofold serial agar dilution technique; format: functional
[14] = test system: Staphylococcus aureus; test: Antimicrobial activity against methicillin-resistant Staphylococcus aureus MTCC 96; format: functional
[15] = test system: Enterococcus faecalis; test: Antimicrobial activity against vancomycin-resistant Enterococcus faecalis assessed as inhibition of bacterial growth by CLSI broth micro plate assay; format: functional
[16] = test system: Enterococcus faecalis; test: Antimicrobial activity against vancomycin-sensitive Enterococcus faecalis assessed as inhibition of bacterial growth by CLSI broth micro plate assay; format: functional
[17] = test system: Staphylococcus aureus; test: Antimicrobial activity against methicillin-resistant Staphylococcus aureus assessed as inhibition of bacterial growth by CLSI broth micro plate assay; format: functional
[18] = test system: Staphylococcus aureus; test: Antimicrobial activity against methicillin-sensitive Staphylococcus aureus assessed as inhibition of bacterial growth by CLSI broth micro plate assay; format: functional
[19] = molecular target: DNA gyrase (Staphylococcus aureus, UniProt P0A0K8+P20831); test: Inhibition of Staphylococcus aureus DNA gyrase assessed as relaxation of pBR322 DNA by supercoiling assay; format: protein-complex assay
DNA gyrase, sequence (P0A0K8 whole entry): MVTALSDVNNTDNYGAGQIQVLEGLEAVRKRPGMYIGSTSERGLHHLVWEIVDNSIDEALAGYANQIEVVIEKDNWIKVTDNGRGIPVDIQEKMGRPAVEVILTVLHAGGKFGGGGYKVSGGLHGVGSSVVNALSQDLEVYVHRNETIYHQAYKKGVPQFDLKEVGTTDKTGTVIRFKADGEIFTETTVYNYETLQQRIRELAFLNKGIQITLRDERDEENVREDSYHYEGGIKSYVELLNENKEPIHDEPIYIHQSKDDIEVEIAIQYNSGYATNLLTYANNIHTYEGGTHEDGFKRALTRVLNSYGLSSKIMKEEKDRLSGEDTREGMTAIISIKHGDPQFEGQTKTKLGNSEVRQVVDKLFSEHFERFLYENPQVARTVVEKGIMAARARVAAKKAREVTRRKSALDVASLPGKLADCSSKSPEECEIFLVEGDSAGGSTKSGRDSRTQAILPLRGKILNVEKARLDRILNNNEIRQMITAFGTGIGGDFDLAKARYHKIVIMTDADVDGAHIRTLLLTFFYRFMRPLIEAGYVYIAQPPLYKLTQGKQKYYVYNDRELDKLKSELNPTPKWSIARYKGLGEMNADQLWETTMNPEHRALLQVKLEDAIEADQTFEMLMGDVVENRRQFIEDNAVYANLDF
DNA gyrase, sequence (P20831 whole entry): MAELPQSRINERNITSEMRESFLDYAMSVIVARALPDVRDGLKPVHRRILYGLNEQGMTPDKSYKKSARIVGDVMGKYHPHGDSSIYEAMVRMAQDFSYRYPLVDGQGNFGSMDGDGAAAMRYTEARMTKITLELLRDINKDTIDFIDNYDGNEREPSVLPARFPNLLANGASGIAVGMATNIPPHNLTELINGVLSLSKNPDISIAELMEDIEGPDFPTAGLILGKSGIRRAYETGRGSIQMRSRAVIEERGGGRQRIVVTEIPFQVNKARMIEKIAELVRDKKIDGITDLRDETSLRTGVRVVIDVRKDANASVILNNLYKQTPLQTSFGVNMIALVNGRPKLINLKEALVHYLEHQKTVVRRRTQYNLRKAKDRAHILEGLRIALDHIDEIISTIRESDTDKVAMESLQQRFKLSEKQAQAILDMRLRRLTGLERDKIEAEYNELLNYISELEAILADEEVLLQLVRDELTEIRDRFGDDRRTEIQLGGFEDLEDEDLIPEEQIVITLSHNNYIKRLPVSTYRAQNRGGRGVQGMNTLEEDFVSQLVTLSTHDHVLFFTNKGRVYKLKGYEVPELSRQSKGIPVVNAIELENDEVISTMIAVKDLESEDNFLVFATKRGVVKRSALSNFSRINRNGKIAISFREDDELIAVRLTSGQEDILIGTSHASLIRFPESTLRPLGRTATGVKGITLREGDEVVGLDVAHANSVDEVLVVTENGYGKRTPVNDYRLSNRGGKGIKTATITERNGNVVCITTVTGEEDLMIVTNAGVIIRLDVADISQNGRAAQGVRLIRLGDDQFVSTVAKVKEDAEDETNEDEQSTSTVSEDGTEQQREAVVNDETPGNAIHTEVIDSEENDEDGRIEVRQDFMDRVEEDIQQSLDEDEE

In the case of `COc1c(NC(=O)c2ccc(NC(=O)c3ccc(NC(=O)[C@H](CC#N)NC(=O)c4ccc(NC(=O)/C(C)=C/c5ccc(C(F)(F)F)cc5)cc4)cc3)c(OC)c2O)ccc(C(=O)O)c1O`, the MIC [1] is reported as 0.07 µM (≈ 0.0626 µg/mL), the MIC [2] is reported as 0.28 µM (≈ 0.251 µg/mL) and the MIC [3] is reported as 0.238 µM and 0.112 µM. The MIC [4] was 0.14 µM (≈ 0.125 µg/mL).
Compound `S=C(NCCc1c[nH]c2ccccc12)Nc1ccc(Cl)c(Cl)c1` has an MIC [5] of 6.25 µg/mL (≈ 17.2 µM), an MIC [6] of 6.25 µg/mL (≈ 17.2 µM) and an MIC [7] of 12.5 µg/mL (≈ 34.3 µM). It also gave an MIC [8] of 6.25 µg/mL (≈ 17.2 µM), an MIC [9] of 12.5 µg/mL (≈ 34.3 µM) and an MIC [10] of 6.25 µg/mL (≈ 17.2 µM). For the same compound, the MIC [11] was 6.25 µg/mL (≈ 17.2 µM), the MIC [12] was 6.25 µg/mL (≈ 17.2 µM) and the MIC [13] was 6.25 µg/mL (≈ 17.2 µM).
With `Cc1ccc(C(=O)Nc2ccc(NC(=O)CCC(=O)NN)cc2)o1` the MIC [14] was 18.9 µM (≈ 6.25 µg/mL).
`COc1cc2c(cc1OCCCC(=O)Nc1cc(NC(=O)c3ccc4sccc4c3)n(C)c1)N=C[C@@H]1CCCN1C2=O` was tested, and the MIC [15] was 0.5 µg/mL (≈ 0.854 µM), the MIC [16] was 0.5 µg/mL (≈ 0.854 µM) and the MIC [17] was 0.5 µg/mL (≈ 0.854 µM). For the same compound, the MIC [18] was 0.5 µg/mL (≈ 0.854 µM) and the IC50 [19] was 1620 nM.
